Test results as given in PMC8162404, “Proteomimetic surface fragments distinguish targets by function” (Chemical Science, 2020).

How the values were obtained:
[1] = molecular target: T1, S100B (Homo sapiens, UniProt P04271); assay: Pull-down assay with immobilized protein and LSM libraries; assay type: binding; conditions: for Kd: H14 library, 1:1 binding assumed, read-out: Surface mapping KD (apparent)
T1 construct: made in house; host or cells: Escherichia coli BL21(DE3)
T1 sequence (P04271 1-92): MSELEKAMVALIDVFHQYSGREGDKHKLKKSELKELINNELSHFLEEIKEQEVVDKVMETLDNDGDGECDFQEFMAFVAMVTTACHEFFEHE
Method in brief: (§1)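 Buffers were HEPES pH 7.4 with 150 mM NaCl, plus 1 mM TCEP and 1 mM CaCl2 (50 mM HEPES) for S100A4 and S100B, 1 mM TCEP for Gal-1, and no additive for RecQ-WH. Immobilized protein at 64 µM was equilibrated 30 min with the LSM sublibrary, and unbound probes were measured by LC-MS.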

[2] = molecular target: T2, Gal-1 (Homo sapiens, UniProt P09382); assay: as above; assay type: binding; conditions: H14 library; 1:1 binding assumed; read-out: Surface mapping KD (apparent)
T2 construct: made in house; host or cells: E. coli BL21(DE3)
T2 sequence (P09382 whole entry): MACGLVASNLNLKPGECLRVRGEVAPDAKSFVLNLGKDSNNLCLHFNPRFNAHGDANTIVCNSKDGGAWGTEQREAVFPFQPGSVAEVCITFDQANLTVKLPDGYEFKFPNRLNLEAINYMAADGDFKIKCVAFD
Method in brief: as §1

[3] = molecular target: T3, S100A4 (Homo sapiens, UniProt P26447); assay: as above; assay type: binding; conditions: for Kd: H14 library, 1:1 binding assumed, read-out: Surface mapping KD (apparent)
T3 construct: made in house; host or cells: Escherichia coli BL21(DE3)
T3 sequence (P26447 whole entry): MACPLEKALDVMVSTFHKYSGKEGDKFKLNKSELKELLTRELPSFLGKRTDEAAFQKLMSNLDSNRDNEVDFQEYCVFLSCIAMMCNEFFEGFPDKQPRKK
Method in brief: as §1

[4] = molecular target: T4, CaM (Bos taurus, UniProt P62157); assay: Competition pull-down with native ligand TRPV1-Ct15; assay type: binding, bovine; conditions: H14 library; competitor peptide 200 µM; read-out: Surface mapping KD (apparent), competition
T4 construct: made in house; host or cells: E. coli BL21 (DE3)

[5] = molecular target: T1, S100B; assay: Competition pull-down with native ligand RSK1 (689–735); assay type: binding; conditions: H14 library; competitor peptide 200 µM; read-out: Surface mapping KD (apparent), competition
[6] = molecular target: T4, CaM; assay: Pull-down assay with immobilized protein and LSM libraries; assay type: binding, bovine; conditions: H14 library; 1:2 stoichiometry assumed; read-out: Surface mapping KD (apparent)
Method in brief: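 CaM buffer was 20 mM HEPES pH 7.4, 150 mM NaCl, 5 mM CaCl2. LSM sublibrary members ([…]) incubated 30 min, RT, with equimolar His-tagged protein on Co-NTA resin. HPLC-MS measured unbound probes; bound fraction relative to resin-only background gave dissociation constants.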

[7] = molecular target: T5, RecQ-WH (Escherichia coli, UniProt P15043); assay: as above; design: species or system E. coli; conditions: H14 library; 1:1 binding assumed; read-out: Surface mapping KD (apparent)
T5 construct: coding for residues 408– 523 of E. coli RecQ; made in house; host or cells: E. coli BL21(DE3)
T5 sequence (P15043 408-523): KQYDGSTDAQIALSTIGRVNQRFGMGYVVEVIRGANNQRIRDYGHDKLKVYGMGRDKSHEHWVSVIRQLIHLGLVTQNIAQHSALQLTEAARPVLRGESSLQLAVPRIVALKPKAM
Method in brief: as §1

[8] = molecular target: T2, Gal-1; assay: Competition pull-down with lactose; assay type: binding; conditions: H14 library; lactose 10 mM; read-out: Surface mapping KD (apparent), competition
Method in brief: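 His6-tagged proteins immobilized on Co-NTA resin at 64 µM final with 64-member LSM foldamer sublibraries (1 M each, as printed) in pH 7.4 HEPES/NaCl buffers (Ca2+/TCEP per target), 30 min RT; competitor peptides 200 µM final, lactose 10 mM for Gal-1. Bound fractions from LC-MS loss vs protein-free resin; KD assuming 1:1 binding.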

[9] = H14 probes selected for validation

CC(C)C[C@@H](CC(=O)N[C@H]1CCCC[C@@H]1C(=O)N[C@H]1CCCC[C@@H]1C(=O)N[C@H](CC(=O)N[C@H]1CCCC[C@@H]1C(N)=O)Cc1ccc(O)cc1)NC(=O)[C@H]1CCCC[C@@H]1N [H14 LY]
Kd [1]: 85 µM | Kd [2]: 231 µM | Kd [3]: 26 µM | Kd [4]: 455 µM | Kd [5]: 154 µM | Kd [6]: 10 µM | Kd [7]: 239 µM

NCCCC[C@@H](CC(=O)N[C@H]1CCCC[C@@H]1C(N)=O)NC(=O)[C@H]1CCCC[C@@H]1NC(=O)[C@H]1CCCC[C@@H]1NC(=O)C[C@H](Cc1ccccc1)NC(=O)[C@H]1CCCC[C@@H]1N [H14 FK]
Kd [1]: 63 µM | Kd [2]: 154 µM | Kd [3]: 141 µM | Kd [5]: 391 µM | Kd [6]: 4 µM | Kd [7]: 424 µM | Kd [8]: 153 µM

CSCC[C@@H](CC(=O)N[C@H]1CCCC[C@@H]1C(=O)N[C@H]1CCCC[C@@H]1C(=O)N[C@H](CC(=O)N[C@H]1CCCC[C@@H]1C(N)=O)Cc1ccc(O)cc1)NC(=O)[C@H]1CCCC[C@@H]1N [H14 MY]
Kd [1]: 176 µM | Kd [2]: 98 µM | Kd [3]: 90 µM | Kd [4]: 402 µM | Kd [5]: 330 µM | Kd [6]: 15 µM | Kd [7]: 263 µM | Kd [8]: 133 µM

N=C(N)NCCC[C@@H](CC(=O)N[C@H]1CCCC[C@@H]1C(N)=O)NC(=O)[C@H]1CCCC[C@@H]1NC(=O)[C@H]1CCCC[C@@H]1NC(=O)C[C@H](Cc1c[nH]c2ccccc12)NC(=O)[C@H]1CCCC[C@@H]1N [H14 WR]
Kd [1]: 32 µM | Kd [2]: 278 µM | Kd [3]: 81 µM | Kd [4]: 167 µM | Kd [5]: 166 µM | Kd [6]: 0.5 µM | Kd [7]: 272 µM | Kd [8]: 280 µM

CSCC[C@@H](CC(=O)N[C@H]1CCCC[C@@H]1C(=O)N[C@H]1CCCC[C@@H]1C(=O)N[C@H](CC(=O)N[C@H]1CCCC[C@@H]1C(N)=O)Cc1c[nH]c2ccccc12)NC(=O)[C@H]1CCCC[C@@H]1N [H14 MW]
Kd [1]: 44 µM | Kd [2]: 141 µM | Kd [3]: 41 µM | Kd [4]: 208 µM | Kd [5]: 131 µM | Kd [6]: 2 µM | Kd [7]: 197 µM | Kd [8]: 172 µM

CC[C@H](C)[C@@H](CC(=O)N[C@H]1CCCC[C@@H]1C(N)=O)NC(=O)[C@H]1CCCC[C@@H]1NC(=O)[C@H]1CCCC[C@@H]1NC(=O)C[C@H](Cc1ccc(O)cc1)NC(=O)[C@H]1CCCC[C@@H]1N [H14 YI]
Kd [1]: 62 µM | Kd [2]: 148 µM | Kd [3]: 19 µM | Kd [4]: 428 µM | Kd [5]: 201 µM | Kd [6]: 2 µM | Kd [7]: 150 µM | Kd [8]: 256 µM

CSCC[C@@H](CC(=O)N[C@H]1CCCC[C@@H]1C(N)=O)NC(=O)[C@H]1CCCC[C@@H]1NC(=O)[C@H]1CCCC[C@@H]1NC(=O)C[C@H](Cc1ccc(O)cc1)NC(=O)[C@H]1CCCC[C@@H]1N [H14 YM]
Kd [1]: 176 µM | Kd [2]: 98 µM | Kd [3]: 90 µM | Kd [4]: 402 µM | Kd [5]: 344 µM | Kd [6]: 7 µM | Kd [7]: 263 µM | Kd [8]: 133 µM

C[C@@H](CC(=O)N[C@H]1CCCC[C@@H]1C(N)=O)NC(=O)[C@H]1CCCC[C@@H]1NC(=O)[C@H]1CCCC[C@@H]1NC(=O)C[C@H](Cc1ccccc1)NC(=O)[C@H]1CCCC[C@@H]1N [H14 FA]
Kd [1]: 253 µM | Kd [2]: 130 µM | Kd [3]: 58 µM | Kd [4]: 309 µM | Kd [5]: 330 µM | Kd [6]: 3 µM | Kd [7]: 282 µM | Kd [8]: 151 µM

C[C@@H](CC(=O)N[C@H]1CCCC[C@@H]1C(N)=O)NC(=O)[C@H]1CCCC[C@@H]1NC(=O)[C@H]1CCCC[C@@H]1NC(=O)C[C@H](Cc1ccc(O)cc1)NC(=O)[C@H]1CCCC[C@@H]1N [H14 YA]
Kd [2]: 342 µM | Kd [3]: 217 µM | Kd [4]: 366 µM | Kd [5]: 436 µM | Kd [6]: 15 µM | Kd [7]: 329 µM

CSCC[C@@H](CC(=O)N[C@H]1CCCC[C@@H]1C(N)=O)NC(=O)[C@H]1CCCC[C@@H]1NC(=O)[C@H]1CCCC[C@@H]1NC(=O)C[C@H](CCSC)NC(=O)[C@H]1CCCC[C@@H]1N [H14 MM]
Kd [1]: 174 µM | Kd [2]: 183 µM | Kd [3]: 14 µM | Kd [4]: 448 µM | Kd [5]: 276 µM | Kd [6]: 16 µM | Kd [7]: 455 µM

CSCC[C@@H](CC(=O)N[C@H]1CCCC[C@@H]1C(N)=O)NC(=O)[C@H]1CCCC[C@@H]1NC(=O)[C@H]1CCCC[C@@H]1NC(=O)C[C@H](CCCCN)NC(=O)[C@H]1CCCC[C@@H]1N [H14 KM]
Kd [1]: 119 µM | Kd [3]: 95 µM | Kd [4]: 146 µM | Kd [5]: 140 µM | Kd [6]: 63 µM | Kd [7]: 459 µM

CC(C)C[C@@H](CC(=O)N[C@H]1CCCC[C@@H]1C(N)=O)NC(=O)[C@H]1CCCC[C@@H]1NC(=O)[C@H]1CCCC[C@@H]1NC(=O)C[C@H](Cc1ccc(O)cc1)NC(=O)[C@H]1CCCC[C@@H]1N [H14 YL]
Kd [1]: 62 µM | Kd [2]: 148 µM | Kd [3]: 19 µM | Kd [4]: 428 µM | Kd [5]: 201 µM | Kd [6]: 2 µM | Kd [7]: 150 µM | Kd [8]: 256 µM

CSCC[C@@H](CC(=O)N[C@H]1CCCC[C@@H]1C(=O)N[C@H]1CCCC[C@@H]1C(=O)N[C@H](CC(=O)N[C@H]1CCCC[C@@H]1C(N)=O)C(C)C)NC(=O)[C@H]1CCCC[C@@H]1N [H14 MV]
Kd [1]: 118 µM | Kd [2]: 178 µM | Kd [3]: 21 µM | Kd [5]: 360 µM | Kd [6]: 3 µM | Kd [7]: 294 µM | Kd [8]: 218 µM

N=C(N)NCCC[C@@H](CC(=O)N[C@H]1CCCC[C@@H]1C(N)=O)NC(=O)[C@H]1CCCC[C@@H]1NC(=O)[C@H]1CCCC[C@@H]1NC(=O)C[C@H](Cc1ccccc1)NC(=O)[C@H]1CCCC[C@@H]1N [H14 FR]
Kd [1]: 56 µM | Kd [2]: 222 µM | Kd [3]: 124 µM | Kd [4]: 290 µM | Kd [5]: 406 µM | Kd [6]: 3 µM | Kd [7]: 447 µM | Kd [8]: 208 µM

C[C@@H](O)[C@@H](CC(=O)N[C@H]1CCCC[C@@H]1C(=O)N[C@H]1CCCC[C@@H]1C(=O)N[C@H](CC(=O)N[C@H]1CCCC[C@@H]1C(N)=O)Cc1c[nH]c2ccccc12)NC(=O)[C@H]1CCCC[C@@H]1N [H14 TW]
Kd [1]: 47 µM | Binding ([1]; H14 probes): binds | Affinity class of probe (high, medium, low) in pull-down [1, 9]: medium | Kd [2]: 143 µM | Kd [3]: 189 µM | Binding ([3]; H14 probes): does not | Affinity class of probe (high, medium, low) in pull-down [3, 9]: low | Kd [5]: 258 µM | Kd [6]: 16 µM | Kd [7]: 288 µM | Kd [8]: 147 µM

CC(C)C[C@@H](CC(=O)N[C@H]1CCCC[C@@H]1C(N)=O)NC(=O)[C@H]1CCCC[C@@H]1NC(=O)[C@H]1CCCC[C@@H]1NC(=O)C[C@H](C)NC(=O)[C@H]1CCCC[C@@H]1N [H14 AL]
Kd [1]: 108 µM | Kd [2]: 127 µM | Kd [3]: 7 µM | Kd [5]: 313 µM | Kd [6]: 13 µM | Kd [7]: 401 µM | Kd [8]: 272 µM

C[C@@H](O)[C@@H](CC(=O)N[C@H]1CCCC[C@@H]1C(N)=O)NC(=O)[C@H]1CCCC[C@@H]1NC(=O)[C@H]1CCCC[C@@H]1NC(=O)C[C@H](Cc1c[nH]c2ccccc12)NC(=O)[C@H]1CCCC[C@@H]1N [H14 WT]
Kd [1]: 107 µM | Kd [3]: 157 µM | Kd [4]: 135 µM | Kd [5]: 242 µM | Kd [6]: 6 µM | Kd [7]: 165 µM

NC(=O)[C@H]1CCCC[C@@H]1NC(=O)C[C@H](Cc1ccccc1)NC(=O)[C@H]1CCCC[C@@H]1NC(=O)[C@H]1CCCC[C@@H]1NC(=O)C[C@H](CCC(=O)O)NC(=O)[C@H]1CCCC[C@@H]1N [H14 EF]
Kd [1]: 476 µM | Kd [5]: 126 µM | Kd [7]: 241 µM | Kd [8]: 430 µM

C[C@@H](CC(=O)N[C@H]1CCCC[C@@H]1C(N)=O)NC(=O)[C@H]1CCCC[C@@H]1NC(=O)[C@H]1CCCC[C@@H]1NC(=O)C[C@H](Cc1c[nH]c2ccccc12)NC(=O)[C@H]1CCCC[C@@H]1N [H14 WA]
Kd [1]: 58 µM | Kd [3]: 55 µM | Kd [4]: 307 µM | Kd [5]: 220 µM | Kd [6]: 3 µM | Kd [7]: 293 µM

NC(=O)[C@H]1CCCC[C@@H]1NC(=O)C[C@H](Cc1ccccc1)NC(=O)[C@H]1CCCC[C@@H]1NC(=O)[C@H]1CCCC[C@@H]1NC(=O)C[C@H](CC(=O)O)NC(=O)[C@H]1CCCC[C@@H]1N [H14 DF]
Kd [1]: 339 µM | Kd [4]: 220 µM | Kd [5]: 130 µM | Kd [7]: 288 µM | Kd [8]: 388 µM
